Laboratory results as given in the supplement of paper PMC10307832.

Tests used:
Test in all cases: relative viability (nuclei count vs DMSO), 5 days (fraction); higher = more cells survive
Halofuginone + Lapatinib = compound: O=C(C[C@H]1NCCC[C@@H]1O)Cn1cnc2cc(Br)c(Cl)cc2c1=O (racemic) [Halofuginone] + CS(=O)(=O)CCNCc1ccc(-c2ccc3ncnc(Nc4ccc(OCc5cccc(F)c5)c(Cl)c4)c3c2)o1 [Lapatinib] (partner 2 µM)
In short: (§1)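 One day after seeding in 1536-well plates, lung cancer cell lines were dosed by pin tool. Dosing was either single-drug or a fixed anchor-drug dose plus five library-drug doses (not always all listed) in √10 steps. After 5 days, nuclei were stained in one fix-and-stain step and counted on 4× images, and relative viability is the nuclei count of treated wells over that of vehicle wells, given as the median of duplicate plates.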

Decitabine + Pemetrexed = compound: Nc1ncn([C@H]2C[C@H](O)[C@@H](CO)O2)c(=O)n1 [Decitabine] + Nc1nc2[nH]cc(CCc3ccc(C(=O)N[C@@H](CCC(=O)O)C(=O)O)cc3)c2c(=O)[nH]1 [Pemetrexed] (partner 0.2 µM)
In short: as §1

Cediranib + Foretinib = compound: COc1cc2c(Oc3ccc4[nH]c(C)cc4c3F)ncnc2cc1OCCCN1CCCC1 [Cediranib] + COc1cc2c(Oc3ccc(NC(=O)C4(C(=O)Nc5ccc(F)cc5)CC4)cc3F)ccnc2cc1OCCCN1CCOCC1 [Foretinib] (partner 0.25 µM)
In short: as §1

Decitabine + Alpelisib = compound: Nc1ncn([C@H]2C[C@H](O)[C@@H](CO)O2)c(=O)n1 [Decitabine] + Cc1nc(NC(=O)N2CCC[C@H]2C(N)=O)sc1-c1ccnc(C(C)(C)C(F)(F)F)c1 [Alpelisib] (partner 2 µM)
In short: as §1

Row | Cell Line | relative viability (Halofuginone + Lapatinib; first compound 0.001 µM) | relative viability (Halofuginone + Lapatinib; first compound 0.003162 µM) | relative viability (Halofuginone + Lapatinib; first compound 0.01 µM) | relative viability (Halofuginone + Lapatinib; first compound 0.03162 µM) | relative viability (Halofuginone + Lapatinib; first compound 0.1 µM) | relative viability (Decitabine + Pemetrexed; first compound 0.04 µM) | relative viability (Decitabine + Pemetrexed; first compound 0.1265 µM) | relative viability (Decitabine + Pemetrexed; first compound 0.4 µM) | relative viability (Decitabine + Pemetrexed; first compound 1.265 µM) | relative viability (Decitabine + Pemetrexed; first compound 4 µM) | relative viability (Cediranib + Foretinib; first compound 0.04 µM) | relative viability (Cediranib + Foretinib; first compound 0.1265 µM) | relative viability (Cediranib + Foretinib; first compound 0.4 µM) | relative viability (Cediranib + Foretinib; first compound 1.265 µM) | relative viability (Cediranib + Foretinib; first compound 4 µM) | relative viability (Decitabine + Alpelisib; first compound 0.04 µM) | relative viability (Decitabine + Alpelisib; first compound 0.1265 µM) | relative viability (Decitabine + Alpelisib; first compound 0.4 µM) | relative viability (Decitabine + Alpelisib; first compound 1.265 µM) | relative viability (Decitabine + Alpelisib; first compound 4 µM)
1 | HCC-78 | 0.931 | 0.698 | 0.707 | 0.903 | 0.137 | 0.902 | 1.18 | 0.874 | 0.825 | 0.864 | 0.584 | 0.73 | 0.576 | 0.58 | 0.593 | 0.324 | 0.293 | 0.285 | 0.204 | 0.247
2 | EBC-1 | 0.223 | 0.247 | 0.233 | 0.266 | 0.245 | – | – | – | – | – | 0.109 | 0.107 | 0.103 | 0.104 | 0.0908 | 0.516 | 0.453 | 0.421 | 0.305 | 0.271
3 | NCI-H2405 | 1.14 | 1.01 | 1.02 | 1.02 | 0.861 | 0.851 | 0.998 | 0.787 | 0.632 | 0.524 | 1.1 | 1.13 | 1.03 | 1.1 | 1.02 | 0.737 | 0.753 | 0.698 | 0.494 | 0.373
4 | A549 | 0.993 | 0.973 | 0.928 | 0.603 | 0.203 | – | – | – | – | – | 0.903 | 1.07 | 0.858 | 0.975 | 0.899 | 0.647 | 0.56 | 0.494 | 0.214 | 0.165
5 | NCI-H3122 | 1.02 | 1.05 | 0.975 | 0.987 | 1.04 | 0.182 | 0.179 | 0.121 | 0.159 | 0.185 | 0.938 | 1.03 | 0.991 | 0.844 | 1.02 | 0.666 | 0.774 | 0.732 | 0.709 | 0.528
6 | NCI-H1563 | 0.757 | 0.853 | 0.879 | 0.627 | 0.506 | 0.791 | 0.899 | 1.43 | 0.751 | 0.858 | 0.976 | 1.09 | 0.908 | 0.958 | 0.936 | 1.06 | 0.965 | 1.02 | 0.97 | 0.824
7 | HCC-44 | 1.02 | 1.01 | 0.955 | 0.997 | 0.808 | 0.638 | 0.632 | 0.547 | 0.595 | 0.548 | – | – | – | – | – | 0.66 | 0.779 | 0.253 | 0.462 | 0.336
8 | PC-3 [JPC-3] | 0.466 | 0.428 | 0.436 | 0.511 | 0.461 | – | 0.845 | 0.439 | 0.528 | 0.586 | 1.1 | 1.1 | 0.98 | 1.05 | 1.08 | – | 0.773 | 0.581 | 0.493 | 0.479
9 | NCI-H1993 | 0.792 | 0.86 | 0.862 | 0.789 | 0.823 | 0.542 | 0.583 | 0.607 | 0.506 | 0.403 | 0.798 | 0.936 | 0.763 | 0.739 | 0.53 | 0.775 | 0.725 | 0.629 | 0.699 | 0.634
